# From US8440674B2, “Substituted pyrimidine compounds as RAF inhibitors and methods of use” (Amgen Inc., priority 2005, dated 2013)
# Columns and labels:
# [1] = biological target: recombinant HuBraf V600E (Homo sapiens, UniProt P15056, V600E); assay: B-raf Homogenous Time Resolved Fluorescent (HTRF) kinase assay; assay type: biochemical; settings: substrate MEK1, 10 uM ATP; threshold lists; read-out: IC50 for the inhibition of B-raf as measured by the HTRF assay
# [2] = test system: A375 cells, a human melanoma cell line having the V600E mutant Braf; assay: B-Raf cell-based assay (ratio of phospho-ERK1/2 to total ERK1/2); settings: A-375, 1 h, P-ERK/total ERK, 60 minute incubation, threshold list, read-out: IC50 for the inhibition of B-raf as measured by the cell-based assay
# Sequence of recombinant HuBraf V600E (P15056 whole entry V600E): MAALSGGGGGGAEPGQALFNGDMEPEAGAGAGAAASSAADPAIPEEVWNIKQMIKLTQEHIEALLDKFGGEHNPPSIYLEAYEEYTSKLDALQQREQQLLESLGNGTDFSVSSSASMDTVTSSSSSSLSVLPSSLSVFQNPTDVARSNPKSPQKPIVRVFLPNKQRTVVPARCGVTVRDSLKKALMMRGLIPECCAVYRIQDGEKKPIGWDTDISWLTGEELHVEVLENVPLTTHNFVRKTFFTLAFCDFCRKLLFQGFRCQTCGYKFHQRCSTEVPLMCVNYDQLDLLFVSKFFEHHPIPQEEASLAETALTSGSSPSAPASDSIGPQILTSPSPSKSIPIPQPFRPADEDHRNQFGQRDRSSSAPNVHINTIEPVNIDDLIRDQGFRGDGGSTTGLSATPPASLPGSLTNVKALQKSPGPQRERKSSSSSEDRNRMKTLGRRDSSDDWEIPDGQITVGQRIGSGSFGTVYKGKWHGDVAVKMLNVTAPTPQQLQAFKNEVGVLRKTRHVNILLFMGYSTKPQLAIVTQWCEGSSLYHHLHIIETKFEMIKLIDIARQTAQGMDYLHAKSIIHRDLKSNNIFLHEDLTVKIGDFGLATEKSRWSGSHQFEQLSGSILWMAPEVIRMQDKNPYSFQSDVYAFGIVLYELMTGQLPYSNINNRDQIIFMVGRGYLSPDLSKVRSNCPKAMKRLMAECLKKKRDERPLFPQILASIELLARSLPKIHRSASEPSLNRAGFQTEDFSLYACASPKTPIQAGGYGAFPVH
IC50 [1] [nM],IC50 [2] [nM],SMILES
≤ 250,≤ 500,"CNc1ncc2cc(-c3c(C)ccc4c(Nc5ccc(OC)c(C(F)(F)F)c5)nsc34)ccc2n1 [Example 399, 6-(3-(4-methoxy-3-(trifluoromethyl)phenylamino)-6-methylbenzo[d]isothiazol-7-yl)-N-methylquinazolin-2-amine]"
≤ 1000,≤ 500,CNc1ncc2cc(-c3c(C)cnc4c(Nc5ccc(OC)c(C(F)(F)F)c5)nccc34)ccc2n1 [Example 410]
